Source: patent publication US20230348418A1, “ISOINDOLINONE COMPOUNDS” (Monte Rosa Therapeutics, Inc., priority 2021, published 2023)

Target: CRBN-DDB1 (Homo sapiens, UniProt Q96SW2)
Experiment: HTRF binding of compounds to CRBN
Settings: not given
Experimental: Compound activity was monitored in a Homogenous Time-Resolved Fluorescence (HTRF) assay using 1-[5-({2-[2-(2-{[2-(2,6-dioxopiperidin-3-yl)-1,3-dioxo-2,3-dihydro-1H-isoindol-4-yl]oxy}acetamido)ethoxy]ethyl}carbamoyl)pentyl]-3,3-dimethyl-2-[(1E,3E)-5-[(2E)-1,3,3-trimethyl-5-sulfo-2,3-dihydro-1H-indol-2-ylidene]penta-1,3-dien-1-yl]-3H-indol-1-ium-5-sulfonate as a fluorescent probe. […] Compounds were stored in dry, ambient temperatures at 10 mM. A 10-point, 1:3 dilution series was prepared from 10 mM stock concentrations in Echo-compatible LDV plates. 10 nL of each compound dilution series was dispensed into assays wells using an Echo 650 (Labcyte inc. USA). […] The assay was then allowed to incubate for 30 min at ambient temperature after transferring compound. […] Analysis and IC50 values were derived using KNIME analytics (KNIME Zurich) transformation and fitting within Collaborative Drug Discovery (Collaborative Drug Discovery USA). Ki was derived from the geometric mean of the IC50 values using the Cheng-Prustoff transformation.

CRBN-DDB1, sequence (Q96SW2 whole entry): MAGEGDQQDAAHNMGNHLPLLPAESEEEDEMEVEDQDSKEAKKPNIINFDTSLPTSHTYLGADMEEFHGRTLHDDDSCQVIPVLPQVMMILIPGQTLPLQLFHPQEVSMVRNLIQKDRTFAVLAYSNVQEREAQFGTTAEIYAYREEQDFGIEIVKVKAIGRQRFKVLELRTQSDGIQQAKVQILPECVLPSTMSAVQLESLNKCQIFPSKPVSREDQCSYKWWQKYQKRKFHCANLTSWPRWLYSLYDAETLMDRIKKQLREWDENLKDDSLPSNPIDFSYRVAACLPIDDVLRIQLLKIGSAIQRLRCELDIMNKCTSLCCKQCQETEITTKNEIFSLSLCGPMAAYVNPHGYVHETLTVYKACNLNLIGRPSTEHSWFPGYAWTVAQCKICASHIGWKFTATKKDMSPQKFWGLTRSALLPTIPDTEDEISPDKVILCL
CRBN-DDB1, sequence (Q16531 whole entry partner): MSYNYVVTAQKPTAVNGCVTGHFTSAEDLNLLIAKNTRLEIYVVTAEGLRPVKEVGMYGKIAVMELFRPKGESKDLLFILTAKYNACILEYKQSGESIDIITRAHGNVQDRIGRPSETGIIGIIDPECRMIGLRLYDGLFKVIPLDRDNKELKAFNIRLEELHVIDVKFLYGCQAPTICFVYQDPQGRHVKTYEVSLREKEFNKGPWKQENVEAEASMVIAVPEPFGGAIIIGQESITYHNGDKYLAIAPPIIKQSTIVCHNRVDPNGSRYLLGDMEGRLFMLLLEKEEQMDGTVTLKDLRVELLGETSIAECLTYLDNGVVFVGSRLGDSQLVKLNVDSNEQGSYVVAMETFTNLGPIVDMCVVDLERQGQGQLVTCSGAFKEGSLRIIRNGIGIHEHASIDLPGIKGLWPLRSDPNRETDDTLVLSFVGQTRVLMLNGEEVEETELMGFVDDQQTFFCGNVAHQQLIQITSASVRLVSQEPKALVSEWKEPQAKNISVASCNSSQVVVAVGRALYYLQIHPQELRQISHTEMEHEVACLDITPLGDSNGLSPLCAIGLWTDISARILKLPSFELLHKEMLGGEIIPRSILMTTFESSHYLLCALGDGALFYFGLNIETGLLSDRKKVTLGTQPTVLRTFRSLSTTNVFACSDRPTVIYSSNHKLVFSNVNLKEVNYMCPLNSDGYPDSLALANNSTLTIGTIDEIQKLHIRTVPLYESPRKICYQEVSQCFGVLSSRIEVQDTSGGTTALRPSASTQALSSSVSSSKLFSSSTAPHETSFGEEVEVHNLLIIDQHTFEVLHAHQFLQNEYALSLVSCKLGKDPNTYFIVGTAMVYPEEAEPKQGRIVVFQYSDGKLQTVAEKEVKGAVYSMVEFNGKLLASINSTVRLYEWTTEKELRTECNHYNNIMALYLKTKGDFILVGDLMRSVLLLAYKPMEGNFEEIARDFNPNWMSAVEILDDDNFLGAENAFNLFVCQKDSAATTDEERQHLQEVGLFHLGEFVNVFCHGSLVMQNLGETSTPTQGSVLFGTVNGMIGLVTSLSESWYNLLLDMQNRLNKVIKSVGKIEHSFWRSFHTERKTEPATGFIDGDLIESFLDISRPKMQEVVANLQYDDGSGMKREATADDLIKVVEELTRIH

SMILES | IC50 [nM]
O=C1CCC(N2Cc3ccc(COC(=O)Nc4cccc(OC(F)(F)F)c4F)cc3C2=O)C(=O)N1 (stereo not drawn) [Compound 169] | 100 to 1000
CC(C)(C)c1ccc(F)c(NC(=O)OCc2ccc3c(c2)C(=O)N(C2CCC(=O)NC2=O)C3)c1 (stereo not drawn) [Compound 235] | 100 to 1000
CCOc1cc(NC(=O)OCc2ccc3c(c2)C(=O)N(C2CCC(=O)NC2=O)C3)c(F)cc1C (stereo not drawn) [Compound 228] | < 100
Cc1cc(NC(=O)OCc2ccc3c(c2)C(=O)N(C2CCC(=O)NC2=O)C3)cc(Cl)c1C#N (stereo not drawn) [Compound 177, (2-(2,6-dioxopiperidin-3-yl)-3-oxoisoindolin-5-yl)methyl(3-chloro-4-cyano-5-methylphenyl)carbamate] | 100 to 1000
O=C1CCC(N2Cc3ccc(COC(=O)NC45CC(F)(C4)C5)cc3C2=O)C(=O)N1 (stereo not drawn) [Compound 190] | 100 to 1000
O=C1CCC(N2Cc3ccc(COC(=O)NC4CN(c5ccccc5)C4)cc3C2=O)C(=O)N1 (stereo not drawn) [Compound 167] | < 100
O=C1CCC(N2Cc3ccc(COC(=O)NC45CC(N6CCCCC6)(C4)C5)cc3C2=O)C(=O)N1 (stereo not drawn) [Compound 198] | 100 to 1000
Cc1cc2c(c(NC(=O)OCc3ccc4c(c3)C(=O)N(C3CCC(=O)NC3=O)C4)c1)OCC2 (stereo not drawn) [Compound 182] | 100 to 1000

Same assay, conditions: read-out: HTRF Class (Cereblon binding, HTRF IC50)

SMILES | IC50 [nM]
Cc1cc(F)c(NC(=O)OCc2ccc3c(c2)C(=O)N(C2CCC(=O)NC2=O)C3)cc1OC(F)(F)F (stereo not drawn) [Compound 204, (2-(2,6-dioxopiperidin-3-yl)-3-oxoisoindolin-5-yl) methyl (2-fluoro-4-methyl-5-(trifluoromethoxy)phenyl)carbamate] | 100 to 1000
Cc1cc(F)c(NC(=O)OCc2ccc3c(c2)C(=O)N(C2CCC(=O)NC2=O)C3)c(F)c1 (stereo not drawn) [Compound 166, (2-(2,6-dioxopiperidin-3-yl)-3-oxoisoindolin-5-yl)methyl (2,6-difluoro-4-methylphenyl)carbamate] | < 100
Cc1cc(F)c(NC(=O)OCc2ccc3c(c2)C(=O)N(C2CCC(=O)NC2=O)C3)c(F)c1Cl (stereo not drawn) [Compound 211, (2-(2,6-dioxopiperidin-3-yl)-3-oxoisoindolin-5-yl)methyl (3-chloro-2,6-difluoro-4-methylphenyl)carbamate] | < 100
O=C1CCC(N2Cc3ccc(COC(=O)NC45CC(c6ccccc6F)(C4)C5)cc3C2=O)C(=O)N1 (stereo not drawn) [Compound 174, (2-(2,6-dioxopiperidin-3-yl)-3-oxoisoindolin-5-yl)methyl (3-(2-fluorophenyl)bicyclo[1.1.1]pentan-1-yl) carbamate] | < 100
O=C1CCC(N2Cc3ccc(COC(=O)Nc4ccc(C(O)C(F)(F)F)cc4)cc3C2=O)C(=O)N1 (stereo not drawn) [Compound 209, (2-(2,6-dioxopiperidin-3-yl)-3-oxoisoindolin-5-yl)methyl (4-(2,2,2-trifluoro-1-hydroxyethyl)phenyl) carbamate] | 100 to 1000
COc1cc(NC(=O)OCc2ccc3c(c2)C(=O)N(C2CCC(=O)NC2=O)C3)c(F)cc1C (stereo not drawn) [Compound 229, (2-(2,6-dioxopiperidin-3-yl)-3-oxoisoindolin-5-yl)methyl (2-fluoro-5-methoxy-4-methylphenyl)carbamate] | < 100
CC(C)(O)c1ccc(NC(=O)OCc2ccc3c(c2)C(=O)N(C2CCC(=O)NC2=O)C3)cc1 (stereo not drawn) [Compound 195, (2-(2,6-dioxopiperidin-3-yl)-3-oxoisoindolin-5-yl)methyl (4-(2-hydroxypropan-2-yl)phenyl)carbamate] | 100 to 1000
O=C1CCC(N2Cc3ccc(COC(=O)Nc4cc(Cl)ccc4F)cc3C2=O)C(=O)N1 (stereo not drawn) [Compound 163, (2-(2,6-dioxopiperidin-3-yl)-3-oxoisoindolin-5-yl)methyl (5-chloro-2-fluorophenyl)carbamate] | 100 to 1000
O=C1CCC(N2Cc3ccc(COC(=O)Nc4ccc(F)c(OC(F)F)c4F)cc3C2=O)C(=O)N1 (stereo not drawn) [Compound 191, (2-(2,6-dioxopiperidin-3-yl)-3-oxoisoindolin-5-yl)methyl (3-(difluoromethoxy)-2,4-difluorophenyl) carbamate] | 100 to 1000
CC(C)(C)c1cccc(NC(=O)OCc2ccc3c(c2)C(=O)N(C2CCC(=O)NC2=O)C3)n1 (stereo not drawn) [Compound 170, (2-(2,6-dioxopiperidin-3-yl)-3-oxoisoindolin-5-yl)methyl (6-(tert-butyl)pyridin-2-yl)carbamate] | 100 to 1000
CC(C)(C)[C@H]1C[C@H](NC(=O)OCc2ccc3c(c2)C(=O)N(C2CCC(=O)NC2=O)C3)C1 (stereo partly drawn) [Compound 185, trans-(2-(2,6-dioxopiperidin-3-yl)-3-oxoisoindolin-5-yl)methyl ((1s,3s)-3-(tert-butyl)cyclobutyl)carbamate] | 100 to 1000
CC(C)c1cccc(NC(=O)OCc2ccc3c(c2)C(=O)N(C2CCC(=O)NC2=O)C3)c1 (stereo not drawn) [Compound 217, (2-(2,6-dioxopiperidin-3-yl)-3-oxoisoindolin-5-yl)methyl (3-isopropylphenyl)carbamate] | 100 to 1000
O=C1CCC(N2Cc3ccc(COC(=O)NC45CC(C(F)F)(C4)C5)cc3C2=O)C(=O)N1 (stereo not drawn) [Compound 219, (2-(2,6-dioxopiperidin-3-yl)-3-oxoisoindolin-5-yl)methyl (3-(difluoromethyl)bicyclo[1.1.1]pentan-1-yl) carbamate] | < 100
Cc1cc(F)c(NC(=O)OCc2ccc3c(c2)C(=O)N(C2CCC(=O)NC2=O)C3)cc1C (stereo not drawn) [Compound 208, (2-(2,6-dioxopiperidin-3-yl)-3-oxoisoindolin-5-yl)methyl (2-fluoro-4,5-dimethylphenyl)carbamate] | 100 to 1000
O=C1CCC(N2Cc3ccc(COC(=O)NC45CC(C4)C5)cc3C2=O)C(=O)N1 (stereo not drawn) [Compound 193, (2-(2,6-dioxopiperidin-3-yl)-3-oxoisoindolin-5-yl)methyl bicyclo[1.1.1]pentan-1-ylcarbamate] | 100 to 1000
O=C1CCC(N2Cc3ccc(COC(=O)Nc4cccc(C5CC5)c4)cc3C2=O)C(=O)N1 (stereo not drawn) [Compound 216, (2-(2,6-dioxopiperidin-3-yl)-3-oxoisoindolin-5-yl)methyl (3-cyclopropylphenyl)carbamate] | 100 to 1000
O=C1CCC(N2Cc3ccc(COC(=O)Nc4cc(OC(F)(F)F)c(F)cc4F)cc3C2=O)C(=O)N1 (stereo not drawn) [Compound 200, (2-(2,6-dioxopiperidin-3-yl)-3-oxoisoindolin-5-yl)methyl (2,4-difluoro-5-(trifluoromethoxy)phenyl)carbamate] | 100 to 1000
O=C1CCC(N2Cc3ccc(COC(=O)Nc4cc(C5CC5)ccc4F)cc3C2=O)C(=O)N1 (stereo not drawn) [Compound 207, (2-(2,6-dioxopiperidin-3-yl)-3-oxoisoindolin-5-yl)methyl (5-cyclopropyl-2-fluorophenyl) carbamate] | < 100
Cc1cc(F)c(NC(=O)OCc2ccc3c(c2)C(=O)N(C2CCC(=O)NC2=O)C3)cc1OC(F)F (stereo not drawn) [Compound 201, (2-(2,6-dioxopiperidin-3-yl)-3-oxoisoindolin-5-yl) methyl (5-(difluoromethoxy)-2-fluoro-4-methylphenyl)carbamate] | 100 to 1000
CC(C)(C)[C@H]1C[C@@H](NC(=O)OCc2ccc3c(c2)C(=O)N(C2CCC(=O)NC2=O)C3)C1 (stereo partly drawn) [Compound 184, cis-(2-(2,6-dioxopiperidin-3-yl)-3-oxoisoindolin-5-yl)methyl ((1s,3s)-3-(tert-butyl)cyclobutyl)carbamate] | 100 to 1000
O=C1CCC(N2Cc3ccc(COC(=O)Nc4cc(F)c(OC(F)F)c(F)c4)cc3C2=O)C(=O)N1 (stereo not drawn) [Compound 206, (2-(2,6-dioxopiperidin-3-yl)-3-oxoisoindolin-5-yl) methyl (4-(difluoromethoxy)-3,5-difluorophenyl)carbamate] | 100 to 1000
Cc1cc(NC(=O)OCc2ccc3c(c2)C(=O)N(C2CCC(=O)NC2=O)C3)ncc1N1CCCC1 (stereo not drawn) [Compound 194, (2-(2,6-dioxopiperidin-3-yl)-3-oxoisoindolin-5-yl)methyl (4-methyl-5-(pyrrolidin-1-yl)pyridin-2-yl) carbamate] | 100 to 1000
Cc1ccc(NC(=O)OCc2ccc3c(c2)C(=O)N(C2CCC(=O)NC2=O)C3)c(F)c1Cl (stereo not drawn) [Compound 179, (2-(2,6-dioxopiperidin-3-yl)-3-oxoisoindolin-5-yl) methyl (3-chloro-2-fluoro-4-methylphenyl)carbamate] | 100 to 1000
CCOc1ccc(F)c(NC(=O)OCc2ccc3c(c2)C(=O)N(C2CCC(=O)NC2=O)C3)c1 (stereo not drawn) [Compound 223, (2-(2,6-dioxopiperidin-3-yl)-3-oxoisoindolin-5-yl)methyl (5-ethoxy-2-fluorophenyl)carbamate] | < 100
CCCOc1ccc(F)c(NC(=O)OCc2ccc3c(c2)C(=O)N(C2CCC(=O)NC2=O)C3)c1 (stereo not drawn) [Compound 226, (2-(2,6-dioxopiperidin-3-yl)-3-oxoisoindolin-5-yl)methyl (2-fluoro-5-propoxyphenyl)carbamate] | 100 to 1000
Cc1cc(F)c(NC(=O)OCc2ccc3c(c2)C(=O)N(C2CCC(=O)NC2=O)C3)cc1F (stereo not drawn) [Compound 213, (2-(2,6-dioxopiperidin-3-yl)-3-oxoisoindolin-5-yl)methyl (2,5-difluoro-4-methylphenyl)carbamate] | < 100
COC(=O)C12CC(NC(=O)OCc3ccc4c(c3)C(=O)N(C3CCC(=O)NC3=O)C4)(C1)C2 (stereo not drawn) [Compound 203, methyl 3-((((2-(2,6-dioxopiperidin-3-yl)-3-oxoisoindolin-5-yl)methoxy)carbonyl)amino)bicyclo[1.1.1]pentane-1-carboxylate] | 100 to 1000
O=C1CCC(N2Cc3ccc(COC(=O)NC45C6C7C4C4C5C6C74c4ccccc4)cc3C2=O)C(=O)N1 (stereo not drawn) [Compound 225, (2-(2,6-dioxopiperidin-3-yl)-3-oxoisoindolin-5-yl)methyl (4-phenylcuban-1-yl)carbamate] | < 100
